Results published in publication PMC6858373 (Scientific Reports, 2019).
Structures can show the parent of a compound that is named as a salt. Where two headings read alike, the source gives them in different places.

Legend:
[1] = biological target: T1, FGF14:Nav1.6 C-tail complex (Homo sapiens, UniProt Q92915+Q9UQD0); experiment: Split-luciferase complementation assay (LCA) in Clone V double stable HEK293 cells; assay type: cell-based; details: CC_NCI screening; for Split Luciferase Assay % Lum Set 1 / Split Luciferase Assay %Lum Set 2: LCA luminescence, normalized to on-plate 0.3% DMSO controls (n=16 per plate); for Split Luciferase Assay % Lum Set 1 / Split Luciferase Assay Z-score Set 1: biological replicate Set 1; for Split Luciferase Assay %Lum Set 2 / Split Luciferase Assay Z-score Set 2: biological replicate Set 2; for Split Luciferase Assay Z-score Set 1 / Split Luciferase Assay Z-score Set 2: LCA, normalized to on-plate 0.3% DMSO controls; for Split Luciferase Assay %Lum Avg: average of Set 1 and Set 2, normalized to 0.3% DMSO controls
T1 construct: polymerase chain reaction (PCR) amplification of the FGF14 open reading frame (nt 1–855); C-terminal fragment of Nav1.6 (amino acids 1763–1976) fused with CD4ΔC-tail (amino acids 1–395); expressed in transfected cells

[2] = biological target: full-length P. pyralis luciferase (Photinus pyralis, UniProt P08659, K549A/L550V/N119G/N50D/S548I); assay type: cell-based; details: CC_NCI screening, normalized to on-plate 0.3% DMSO controls; for Luciferase Assay % Lum: full-length luciferase counter-screen luminescence; for Luciferase Assay Z-score: full-length luciferase counter-screen
[3] = system: Clone V cells; experiment: CellTiter Blue (CTB) cell viability counter-screen; details: CC_NCI screening; CTB cell viability fluorescence; normalized to on-plate 0.3% DMSO controls
[4] = system: Clone V cells; details: human

Chain of full-length P. pyralis luciferase (P08659 whole entry N50D/N119G/S548I/K549A/L550V, looked up): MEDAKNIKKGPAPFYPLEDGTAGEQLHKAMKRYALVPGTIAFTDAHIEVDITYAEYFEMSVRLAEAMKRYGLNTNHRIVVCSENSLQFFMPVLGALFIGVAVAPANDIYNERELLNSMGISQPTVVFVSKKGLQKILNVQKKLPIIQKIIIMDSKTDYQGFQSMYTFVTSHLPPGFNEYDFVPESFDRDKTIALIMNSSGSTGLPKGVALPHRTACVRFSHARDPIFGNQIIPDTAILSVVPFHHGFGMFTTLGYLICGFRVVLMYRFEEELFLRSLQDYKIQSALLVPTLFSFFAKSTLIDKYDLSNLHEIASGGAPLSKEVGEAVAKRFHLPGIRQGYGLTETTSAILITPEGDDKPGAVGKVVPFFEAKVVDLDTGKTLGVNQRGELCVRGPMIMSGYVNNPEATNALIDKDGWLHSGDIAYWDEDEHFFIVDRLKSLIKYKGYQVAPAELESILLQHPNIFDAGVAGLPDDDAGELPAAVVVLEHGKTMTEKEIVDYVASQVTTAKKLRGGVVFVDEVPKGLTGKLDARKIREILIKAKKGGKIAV
T1 sequence (Q92915 1-252 isoform Q92915-2): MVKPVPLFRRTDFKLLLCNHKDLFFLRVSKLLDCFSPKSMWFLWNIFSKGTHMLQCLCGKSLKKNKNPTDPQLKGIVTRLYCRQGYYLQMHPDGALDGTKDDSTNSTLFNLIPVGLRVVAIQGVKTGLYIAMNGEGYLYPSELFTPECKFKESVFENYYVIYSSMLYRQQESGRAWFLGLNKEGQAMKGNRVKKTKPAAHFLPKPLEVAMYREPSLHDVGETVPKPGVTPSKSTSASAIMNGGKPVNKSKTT
T1 sequence (Q9UQD0 1763-1976 limits assumed): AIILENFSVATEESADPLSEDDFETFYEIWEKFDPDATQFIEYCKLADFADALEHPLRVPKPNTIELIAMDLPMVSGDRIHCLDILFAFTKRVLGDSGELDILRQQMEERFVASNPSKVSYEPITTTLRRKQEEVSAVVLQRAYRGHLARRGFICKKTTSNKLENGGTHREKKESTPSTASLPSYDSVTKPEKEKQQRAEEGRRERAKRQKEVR

| Compound | Split Luciferase Assay % Lum Set 1 [1] | Split Luciferase Assay %Lum Set 2 [1] | Split Luciferase Assay Z-score Set 1 [1] | Split Luciferase Assay Z-score Set 2 [1] | Split Luciferase Assay %Lum Avg [1] | Luciferase Assay % Lum [2] | Luciferase Assay Z-score [2] | Toxicity Assay % Fluor [3] | Toxicity Assay Z-score ([4]; 16 h, 30 µM) | Toxicity Assay Z-score [4] |
| --- | --- | --- | --- | --- | --- | --- | --- | --- | --- | --- |
| O=C(/C=C/c1cccc(S(=O)(=O)Nc2ccccc2)c1)NO [PXD101] | 105.78% | 106.11% | 0.47 | 0.50 | 105.94% | 87.87% | -1.55 | 96.16% | -0.54 |  |
| Cc1ccc(C(=O)Nc2ccc(CN3CCN(C)CC3)c(C(F)(F)F)c2)cc1C#Cc1cnc2cccnn12 [Ponatinib] | 53.59% | 58.26% | -3.75 | -3.40 | 55.93% | 84.93% | -1.93 | 80.95% |  | -2.66 |
| Oc1ccc(-c2nc(-c3ccncc3)c(-c3ccc(F)cc3)[nH]2)cc1 [SB 202190] | 101.43% | 105.07% | 0.12 | 0.41 | 103.25% | 79.13% | -2.67 | 96.10% | -0.55 |  |
| O=C1CCC(N2C(=O)c3ccccc3C2=O)C(=O)N1 (stereo not drawn) [Thalidomide] | 128.60% | 108.19% | 2.31 | 0.67 | 118.40% | 100.85% | 0.11 | 87.53% | -1.74 |  |
| CC[C@@]1(O)C(=O)OCc2c1cc1n(c2=O)Cc2cc3c(CN(C)C)c(O)ccc3nc2-1 [Topotecan hydrochloride] | 57.94% | 58.26% | -3.40 | -3.40 | 58.10% | 88.71% | -1.45 | 93.13% | -0.96 |  |
| CC1=C(/C=C/C(C)=C/C=C/C(C)=C/C(=O)O)C(C)(C)CCC1 [Tretinoin] | 117.73% | 106.11% | 1.43 | 0.50 | 111.92% | 80.43% | -2.51 | 87.25% | -1.78 |  |
| Clc1ccc(Nc2nnc(Cc3ccncc3)c3ccccc23)cc1 [VATALANIB] | 64.47% | 69.70% | -2.87 | -2.47 | 67.08% | 78.45% | -2.76 | 87.19% | -1.79 |  |
| CC[C@]1(O)C[C@H]2CN(CCc3c([nH]c4ccccc34)[C@@](C(=O)OC)(c3cc4c(cc3OC)N(C=O)[C@H]3[C@@](O)(C(=O)OC)[C@H](OC(C)=O)[C@]5(CC)C=CCN6CC[C@]43[C@@H]65)C2)C1 [Vincristine sulfate] | 200.35% | 196.62% | 8.11 | 7.86 | 198.49% | 109.71% | 1.24 | 98.56% | -0.20 |  |
| CCC1=C[C@@H]2CN(C1)Cc1c([nH]c3ccccc13)[C@@](C(=O)OC)(c1cc3c(cc1OC)N(C)[C@H]1[C@@](O)(C(=O)OC)[C@H](OC(C)=O)[C@]4(CC)C=CCN5CC[C@]31[C@@H]54)C2 [Vinorelbine tartrate] | 231.88% | 185.18% | 10.66 | 6.93 | 208.53% | 110.51% | 1.35 | 88.42% | -1.62 |  |
